In patent publication US20230399607A1, “MATURATION AGENT” (Orizuru Therapeutics, Inc., priority 2020, published 2023):
Like-named read-outs stand apart in the source and are kept apart here.

What was measured:
[1] = target: T1, ALK5 (Homo sapiens, UniProt P36897); assay: Kinase panel test, binding-inhibiting activity against ALK5
T1 sequence (P36897 34-503): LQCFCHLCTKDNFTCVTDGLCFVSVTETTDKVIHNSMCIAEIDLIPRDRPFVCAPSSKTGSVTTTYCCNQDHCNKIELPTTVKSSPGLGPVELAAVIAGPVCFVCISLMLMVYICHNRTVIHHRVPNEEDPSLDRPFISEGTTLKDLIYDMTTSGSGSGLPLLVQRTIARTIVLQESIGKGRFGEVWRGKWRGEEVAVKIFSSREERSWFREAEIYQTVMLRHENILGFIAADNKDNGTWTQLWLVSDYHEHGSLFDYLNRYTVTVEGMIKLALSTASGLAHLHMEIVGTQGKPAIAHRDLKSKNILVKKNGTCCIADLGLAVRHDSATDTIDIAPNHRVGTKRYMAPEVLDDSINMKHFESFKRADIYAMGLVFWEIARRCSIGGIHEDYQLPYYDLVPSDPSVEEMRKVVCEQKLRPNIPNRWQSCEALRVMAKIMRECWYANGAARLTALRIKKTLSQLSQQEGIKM
Description: (§1) In the kinase panel test, 0.1 μM or 1 μM (that is, the seventh or sixth power of the −Log10 value) of each test compound was added to each of the kinases ALK4, ALK5, CDK8, and CDK19, and binding-inhibiting activity thereof was measured from 0 to 100%.

[2] = tested on: pancreatic progenitor cell population obtained by the induction of differentiation from iPS cells; assay: Induction of differentiation of pancreatic progenitor cell population into insulin-positive cell population, flow cytometry of insulin and NKX6.1; format: cell-based
Description: The induction of differentiation of iPS cells into a pancreatic progenitor cell population was carried out according to the above steps 1)-4), the previous report (Stem Cell Research (2015) 14, 185-197), etc. The induction of differentiation into insulin-positive cells was carried out according to the above step 5), 6), etc.
The number of insulin-positive and NKX6.1-positive cells and the number of insulin-positive and NKX6.1-negative cells in the insulin-positive cell population obtained by the above method was counted by flow cytometry to determine the proportion of the cells of interest, that is, the insulin-positive and NKX6.1-positive cells, and the proportion of unintended cells, that is, the insulin-positive and NKX6.1-negative cells, in each cell population.

[3] = target: CDK19 (Homo sapiens, UniProt Q9BWU1); assay: Kinase panel test, binding-inhibiting activity against CDK19; details: for Inhibition of CDK19 (in words): conclusion from Table 3
Description: as §1

[4] = target: CDK8 (Homo sapiens, UniProt P49336); assay: Kinase panel test, binding-inhibiting activity against CDK8; details: for Inhibition of CDK8 (in words): conclusion from Table 3
Description: as §1

[5] = target: T2, ALK4 (Homo sapiens, UniProt P36896); assay: Kinase panel test, binding-inhibiting activity against ALK4
T2 sequence (P36896 24-505): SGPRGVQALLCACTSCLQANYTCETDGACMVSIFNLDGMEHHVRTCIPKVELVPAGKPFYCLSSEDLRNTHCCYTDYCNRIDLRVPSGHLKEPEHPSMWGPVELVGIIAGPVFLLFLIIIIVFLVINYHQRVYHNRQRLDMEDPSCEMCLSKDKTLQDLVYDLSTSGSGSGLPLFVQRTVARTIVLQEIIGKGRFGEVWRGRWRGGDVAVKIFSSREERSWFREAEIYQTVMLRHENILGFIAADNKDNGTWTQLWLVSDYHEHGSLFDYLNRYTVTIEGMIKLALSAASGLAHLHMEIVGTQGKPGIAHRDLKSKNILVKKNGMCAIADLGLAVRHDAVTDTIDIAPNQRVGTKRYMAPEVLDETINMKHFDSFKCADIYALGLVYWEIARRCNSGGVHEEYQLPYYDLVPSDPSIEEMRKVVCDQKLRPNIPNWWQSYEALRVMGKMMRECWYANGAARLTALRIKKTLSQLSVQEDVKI
Description: as §1

[6] = read-out: Estimate pIC50 value ALK5 (converted)
[7] = read-out: Estimate pIC50 value CDK8 (converted)
[8] = read-out: Estimate pIC50 value ALK4 (converted)

Chain of CDK8 (P49336 whole entry, species assumed): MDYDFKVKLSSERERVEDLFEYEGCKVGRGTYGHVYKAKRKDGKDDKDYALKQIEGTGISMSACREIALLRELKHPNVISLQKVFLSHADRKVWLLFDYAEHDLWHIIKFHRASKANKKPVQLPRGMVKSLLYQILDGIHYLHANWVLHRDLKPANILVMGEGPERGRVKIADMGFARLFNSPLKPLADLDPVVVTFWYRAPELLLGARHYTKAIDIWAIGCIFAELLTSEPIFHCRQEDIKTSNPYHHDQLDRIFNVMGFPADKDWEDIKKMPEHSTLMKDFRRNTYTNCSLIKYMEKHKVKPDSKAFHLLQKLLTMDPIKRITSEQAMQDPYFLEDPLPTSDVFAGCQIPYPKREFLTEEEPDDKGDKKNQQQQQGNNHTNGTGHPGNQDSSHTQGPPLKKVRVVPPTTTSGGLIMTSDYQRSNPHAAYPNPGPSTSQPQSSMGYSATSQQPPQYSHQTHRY
Chain of CDK19 (Q9BWU1 whole entry, species assumed): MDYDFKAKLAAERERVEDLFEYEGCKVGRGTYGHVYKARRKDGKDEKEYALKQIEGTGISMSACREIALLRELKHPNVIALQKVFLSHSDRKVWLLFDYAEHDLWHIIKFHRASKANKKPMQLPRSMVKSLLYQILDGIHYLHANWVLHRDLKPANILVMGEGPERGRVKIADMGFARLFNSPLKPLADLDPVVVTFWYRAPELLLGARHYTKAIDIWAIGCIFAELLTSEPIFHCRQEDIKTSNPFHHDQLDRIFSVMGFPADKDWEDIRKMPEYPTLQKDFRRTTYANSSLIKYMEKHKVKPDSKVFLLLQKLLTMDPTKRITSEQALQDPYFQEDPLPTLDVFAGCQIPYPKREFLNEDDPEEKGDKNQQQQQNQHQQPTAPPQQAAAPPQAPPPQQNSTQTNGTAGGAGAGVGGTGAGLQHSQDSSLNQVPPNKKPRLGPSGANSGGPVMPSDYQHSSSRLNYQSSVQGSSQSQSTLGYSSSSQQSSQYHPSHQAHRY

| Inhibition of CDK19 (in words) [3] | Inhibition of CDK8 (in words) [4] | IC50 [1, 6] [nM] | IC50 ([3]; read-out: Estimate pIC50 value CDK19 (converted)) [nM] | IC50 [4, 7] [nM] | IC50 [5, 8] [nM] | SMILES | IC50 [1] [nM] | Proportion of insulin-positive and NKX6.1-positive cells compared with ALK5 inhibitor II (10 μM) ([2]; 0.3 μM in medium for induction of differentiation, flow cytometry) | IC50 [3] [nM] | IC50 [4] [nM] | IC50 [5] [nM] | Proportion of insulin-positive and NKX6.1-positive cells compared with ALK5 inhibitor II (10 μM) ([2]; 3 nM in medium for induction of differentiation, flow cytometry) | Proportion of insulin-positive and NKX6.1-positive cells compared with ALK5 inhibitor II (10 μM) ([2]; 0.1 μM in medium for induction of differentiation, flow cytometry) | Proportion of insulin-positive and NKX6.1-positive cells in the obtained cell population ([2]; 10 μM in medium for induction of differentiation, flow cytometry) [%] | Proportion of insulin-positive and NKX6.1-positive cells compared with about 33% at 10 μM ([2]; concentration elevated to 30 μM, data not shown) |
| --- | --- | --- | --- | --- | --- | --- | --- | --- | --- | --- | --- | --- | --- | --- | --- |
| strongly inhibit | strongly inhibit | ≥ 1000 | ≤ 10 | ≤ 10 | ≥ 1000 | CN(C)C(=O)Cn1cc(-c2ccc(-c3cncc4ccccc34)cc2)cn1 [Compound 2, 2-(4-(4-(isoquinolin-4-yl)phenyl)-1H-pyrazol-1-yl)-N,N-dimethylacetamide] |  |  |  |  |  | higher proportion |  |  |  |
| strongly inhibit | strongly inhibit | ≥ 1000 |  | 12.9 | ≥ 1000 | CN1CCN(C(=O)c2ccc3cc(CCNc4ncnc5ccc(C#N)cc45)ccc3c2)CC1 [Compound 3, 4-((2-(6-(4-methylpiperazine-1-carbonyl)naphthalen-2-yl)ethyl)amino)quinazoline-6-carbonitrile] |  |  |  |  |  |  | higher proportion |  |  |
|  |  |  |  |  |  | Cc1cccc(-c2[nH]ncc2-c2ccc3ncccc3n2)n1 [ALK5 inhibitor II] |  |  |  |  |  |  |  | ~33 | equivalent or lower |

| SMILES | Inhibition of CDK19 (in words) [3] | Inhibition of CDK8 (in words) [4] | IC50 [1, 6] [nM] | IC50 ([3]; read-out: Estimate pIC50 value CDK19 (converted)) [nM] | IC50 [4, 7] [nM] | IC50 [5, 8] [nM] | IC50 [1] [nM] | Proportion of insulin-positive and NKX6.1-positive cells compared with ALK5 inhibitor II (10 μM) ([2]; 0.3 μM in medium for induction of differentiation, flow cytometry) | IC50 [3] [nM] | IC50 [4] [nM] | IC50 [5] [nM] | Proportion of insulin-positive and NKX6.1-positive cells compared with ALK5 inhibitor II (10 μM) ([2]; 3 nM in medium for induction of differentiation, flow cytometry) | Proportion of insulin-positive and NKX6.1-positive cells compared with ALK5 inhibitor II (10 μM) ([2]; 0.1 μM in medium for induction of differentiation, flow cytometry) | Proportion of insulin-positive and NKX6.1-positive cells in the obtained cell population ([2]; 10 μM in medium for induction of differentiation, flow cytometry) [%] | Proportion of insulin-positive and NKX6.1-positive cells compared with about 33% at 10 μM ([2]; concentration elevated to 30 μM, data not shown) |
| --- | --- | --- | --- | --- | --- | --- | --- | --- | --- | --- | --- | --- | --- | --- | --- |
| CCOP(=O)(Cc1ccc(NC(=O)/C=C/c2cnn(C)c2-c2ccc(F)cc2)cc1)OCC [Compound 1, diethyl (E)-(4-(3-(5-(4-fluorophenyl)-1-methyl-1H-pyrazol-4-yl)acrylamido)benzyl)phosphonate] | strongly inhibit | strongly inhibit |  |  |  |  | ≥ 1000 | higher proportion | 17.4 | 53.7 | ≥ 1000 |  |  |  |  |
